Laboratory results published in patent US5814610A, “Osteogenic growth oligopeptides and pharmaceutical compositions containing them” (Yissum Research Development Company of the Hebrew …, priority 1993, dated 1998).
No end group written: not given here.

Tests used:
[1] = test system: osteoblastic MC3T3E1 cells; assay: Proliferative activity: osteoblastic MC3T3E1 cell number in vitro; assay type: cell-based; details: for Proliferative effect on cell number (magnitude, compared with positive sOGP control): MC3T3E1 cells
NIH 3T3 fibroblasts = assay: Proliferative activity: fibroblastic NIH 3T3 cell number in vitro; assay type: cell-based; details: NIH 3T3 cells
[2] = Kharchenko et al.; cited from earlier work

**Q.** With Gly--Gly [OGP(13-14)] as the substance, how does the “Proliferative effect on cell number (magnitude, compared with positive sOGP control)” value [1] read?
**A.** did not affect

**Q.** And the “Proliferative activity, Percent Activity of Full Length Peptide [OGP(1-14)], Mean” value ([1]; MC3T3 E1 cells, mean of experiments)?
**A.** 0%

**Q.** And the “Proliferative effect on cell number (magnitude, compared with positive sOGP control)” value (NIH 3T3 fibroblasts)?
**A.** did not affect

**Q.** And the “Proliferative activity, Percent Activity of Full Length Peptide [OGP(1-14)], Mean” value (NIH 3T3 fibroblasts; mean of experiments)?
**A.** 0%

**Q.** With “Ac-MYGFGG [Ac-Met^0 [OGP(10-14)], Ac--Met--Tyr--Gly--Phe--Gly--Gly]” as the substance, how does the “Peptide concentration of peak proliferative activity” value ([1]; MC3T3E1 cell number) read?
**A.** 10^-13 M

**Q.** What about the “Proliferative effect on cell number (magnitude, compared with positive sOGP control)” value [1] of the same substance?
**A.** closely similar to that of positive sOGP controls

**Q.** What about the “Proliferative effect on cell number (magnitude, compared with positive sOGP control)” value (NIH 3T3 fibroblasts) of the same substance?
**A.** closely similar to that of positive sOGP controls

**Q.** With “Tyr--Gly--Phe--Gly--Gly (YGFGG; printed: Tyr--Gly--Phe--Gly--Gly) [OGP(10-14)]” as the substance, how does the “Analgesic and opioid activity” value [2] read?
**A.** analgesic and opiod activity
